The nature of the data set: Stability of phosphoric acid salt of dronedarone prepared without polymer. The data set is classed as physicochemical. The conditions noted are these: 45° C. and 75% relative humidity (RH).

In the case of `CCCCc1oc2ccc(NS(C)(=O)=O)cc2c1C(=O)c1ccc(OCCCN(CCCC)CCCC)cc1.O=P(O)(O)O` [phosphoric acid salt of dronedarone], the Stability entry is “unstable”.

The record behind these values is patent US20160213569A1, “PHARMACEUTICAL COMPOSITIONS OF RANOLAZINE AND DRONEDARONE” (Gilead Sciences, Inc., priority 2013, published 2016).
